Calls of active or inactive are those of the source. The rule behind the calls is not given here.
How the values were obtained:
Plasmodium falciparum [1] = test: microbe, parasite or virus in culture; details: RCS
Description: Antimalarial activity against chloroquine-resistant, mefloquine-sensitive Plasmodium falciparum RCS

Plasmodium falciparum [2] = test: microbe, parasite or virus in culture; details: D6
Description: Antimalarial activity against chloroquine and pyrimethamine-sensitive Plasmodium falciparum D6

Plasmodium falciparum [3] = test: microbe, parasite or virus in culture; details: TM91C235
Description: Antimalarial activity against mefloquine, chloroquine and quinine-resistant Plasmodium falciparum TM91C235

Plasmodium falciparum [4] = test: microbe, parasite or virus in culture; details: W2
Description: Antimalarial activity against chloroquine and pyrimethamine-resistant Plasmodium falciparum W2

Plasmodium berghei [5] = test: Antimalarial activity as reduced parasitaemia after 24 days against Plasmodium berghei KBG173 infected CD1 mice (Mus musculus) at 40 mg/kg/day subcutaneous dose; type: functional; parameters: scale not given: the % may be the effect or the level left
Plasmodium berghei [6] = test: Antimalarial activity as reduced parasitaemia after 13 days against Plasmodium berghei KBG173 infected CD1 mice (Mus musculus) at 40 mg/kg/day subcutaneous dose; type: functional; parameters: scale not given: the % may be the effect or the level left
Plasmodium berghei [7] = test: Antimalarial activity as reduced parasitaemia after 10 days against Plasmodium berghei KBG173 infected CD1 mice (Mus musculus) at 20 mg/kg/day subcutaneous dose; type: functional; parameters: scale not given: the % may be the effect or the level left
Plasmodium berghei [8] = test: Antimalarial activity as reduced parasitaemia after 24 days against Plasmodium berghei KBG173 infected CD1 mice (Mus musculus) at 320 mg/kg/day peroral dose; type: functional; parameters: scale not given: the % may be the effect or the level left; details: route oral
Plasmodium berghei [9] = test: Antimalarial activity as reduced parasitaemia after 20 days against Plasmodium berghei KBG173 infected CD1 mice (Mus musculus) at 40 mg/kg/day subcutaneous dose; type: functional; parameters: scale not given: the % may be the effect or the level left
Plasmodium berghei [10] = test: Antimalarial activity as reduced parasitaemia after 31 days against Plasmodium berghei KBG173 infected CD1 mice (Mus musculus) at 40 mg/kg/day subcutaneous dose; type: functional; parameters: scale not given: the % may be the effect or the level left
Plasmodium berghei [11] = test: Antimalarial activity as reduced parasitaemia at day 6 in Plasmodium berghei KBG173 infected CD1 mice (Mus musculus) at 20 mg/kg/day subcutaneous dose; type: functional; parameters: scale not given: the % may be the effect or the level left
Plasmodium berghei [12] = test: Antimalarial activity against Plasmodium berghei KBG173 infected CD1 mice (Mus musculus) assessed as survival time at 80 mg/kg/day, subcutaneously administered on day 3 twice a day; type: functional; details: route subcutaneous
[13] = Metabolic stability in human liver microsomes assessed as half life at 10 uM; type: ADME, Microsome
Plasmodium berghei [14] = test: Antimalarial activity as survival time in Plasmodium berghei KBG173 infected CD1 mice (Mus musculus) at 20 mg/kg/day peroral dose; type: functional; details: route oral
Plasmodium berghei [15] = test: Antimalarial activity as reduced parasitaemia at day 20 against Plasmodium berghei KBG173 infected CD1 mice (Mus musculus) at 320 mg/kg/day peroral dose; type: functional; parameters: scale not given: the % may be the effect or the level left; details: route oral
Plasmodium berghei [16] = test: Antimalarial activity as survival time against Plasmodium berghei KBG173 infected CD1 mice (Mus musculus) at 80 mg/kg/day peroral dose 3 - 5 days post infection; type: functional; details: route oral
Plasmodium berghei [17] = test: Antimalarial activity as parasite-free survivors at day 31 of Plasmodium berghei KBG173 infected CD1 mice (Mus musculus) at 20 mg/kg/day subcutaneous dose; type: functional, organism-based
Plasmodium falciparum [18] = test: Relative activity against Plasmodium falciparum W2 as ratio of IC90 to IC50; type: functional
Plasmodium berghei [19] = test: Antimalarial activity as reduced parasitaemia after 27 days against Plasmodium berghei KBG173 infected CD1 mice (Mus musculus) at 40 mg/kg/day subcutaneous dose; type: functional; parameters: scale not given: the % may be the effect or the level left
Plasmodium berghei [20] = test: Antimalarial activity as reduced parasitaemia after 13 days against Plasmodium berghei KBG173 infected CD1 mice (Mus musculus) at 20 mg/kg/day subcutaneous dose; type: functional; parameters: scale not given: the % may be the effect or the level left
[21] = Metabolic stability in mouse liver microsomes assessed as half life at 10 uM; type: ADME, Microsome
Plasmodium berghei [22] = test: Antimalarial activity as survival time against Plasmodium berghei KBG173 infected CD1 mice (Mus musculus) at 160 mg/kg/day subcutaneous dose; type: functional
Plasmodium berghei [23] = test: Antimalarial activity as parasite-free survivors at day 31 of Plasmodium berghei KBG173 infected CD1 mice (Mus musculus) at 20 mg/kg/day peroral dose; type: functional, organism-based
Plasmodium berghei [24] = test: Antimalarial activity as survival time in Plasmodium berghei KBG173 infected CD1 mice (Mus musculus) at 320 mg/kg/day peroral dose; type: functional; details: route oral
Plasmodium berghei [25] = test: Antimalarial activity as reduced parasitaemia after 27 days against Plasmodium berghei KBG173 infected CD1 mice (Mus musculus) at 320 mg/kg/day peroral dose; type: functional; parameters: scale not given: the % may be the effect or the level left; details: route oral
Plasmodium berghei [26] = test: Antimalarial activity as survival time against Plasmodium berghei KBG173 infected CD1 mice (Mus musculus) at 80 mg/kg/day subcutaneous dose; type: functional
Plasmodium berghei [27] = test: Antimalarial activity as reduced parasitaemia at day 17 against Plasmodium berghei KBG173 infected CD1 mice (Mus musculus) at 320 mg/kg/day peroral dose; type: functional; parameters: scale not given: the % may be the effect or the level left; details: route oral
Plasmodium berghei [28] = test: Antimalarial activity as reduced parasitaemia after 17 days against Plasmodium berghei KBG173 infected CD1 mice (Mus musculus) at 20 mg/kg/day subcutaneous dose; type: functional; parameters: scale not given: the % may be the effect or the level left
Plasmodium berghei [29] = test: Antimalarial activity as reduced parasitaemia after 10 days against Plasmodium berghei KBG173 infected CD1 mice (Mus musculus) at 40 mg/kg/day subcutaneous dose; type: functional; parameters: scale not given: the % may be the effect or the level left
Plasmodium berghei [30] = test: Antimalarial activity as reduced parasitaemia after 17 days against Plasmodium berghei KBG173 infected CD1 mice (Mus musculus) at 40 mg/kg/day subcutaneous dose; type: functional; parameters: scale not given: the % may be the effect or the level left
[31] = Cytotoxicity against human NCI60 cells; type: functional
Plasmodium berghei [32] = test: Antimalarial activity as parasite-free survivors at day 31 of Plasmodium berghei KBG173 infected CD1 mice (Mus musculus) at 160 mg/kg/day subcutaneous dose; type: functional, organism-based
Plasmodium berghei [33] = test: Antimalarial activity as reduced parasitaemia after 31 days against Plasmodium berghei KBG173 infected CD1 mice (Mus musculus) at 320 mg/kg/day peroral dose; type: functional; parameters: scale not given: the % may be the effect or the level left; details: route oral
Plasmodium berghei [34] = test: Antimalarial activity as parasite-free survivors at day 31 of Plasmodium berghei KBG173 infected CD1 mice (Mus musculus) at 320 mg/kg/day peroral dose; type: functional, organism-based
Plasmodium falciparum [35] = test: Relative activity against Plasmodium falciparum TM91C235 as fold-lower IC90/IC50 ratio relative to mefloquine

CCN(CC)CCCC(C)Nc1ccnc2cc(Cl)ccc12 (stereo not drawn) [CHLOROQUINE]
IC90 (Plasmodium falciparum [1]): 397 nM | IC90 (Plasmodium falciparum [2]): 17.6 nM

C[C@@H]1CC[C@H]2[C@@H](C)C(=O)O[C@@H]3O[C@@]4(C)CC[C@@H]1[C@]32OO4 [ARTEMISININ]
IC90 (Plasmodium falciparum [1]): 13 nM | IC90 (Plasmodium falciparum [3]): 13 nM | IC50 (Plasmodium falciparum [4]): 6.7 nM | IC90 (Plasmodium falciparum [4]): 11.5 nM | IC50 (Plasmodium falciparum [2]): 9 nM | IC90 (Plasmodium falciparum [2]): 12.8 nM

CC(=O)O[C@H]1C[C@H]2[C@@H]([C@H](OC(C)=O)C[C@@H]3CC4(CC[C@@]32C)OOC(C)(C)OO4)[C@@H]2CC[C@H]([C@H](C)CCC(=O)NCCN(C)C)[C@@]12C
Activity (Plasmodium berghei [5]): 12.53% | Activity (Plasmodium berghei [6]): 0.004% | Activity (Plasmodium berghei [7]): 0.032% | Activity (Plasmodium berghei [8]): 1.4% | Activity (Plasmodium berghei [9]): 3.9% | Activity (Plasmodium berghei [10]): 0% | Activity (Plasmodium berghei [11]): 0.002% | Survival (Plasmodium berghei [12]): 16 days | half-life at 10 µM [13]: > 1 h | Survival (Plasmodium berghei [14]): 8 days | Activity (Plasmodium berghei [15]): 1.9% | Survival (Plasmodium berghei [16]): 14 days | Activity (Plasmodium berghei [17]): inactive | Ratio (Plasmodium falciparum [18]): 1.71 | Activity (Plasmodium berghei [19]): 0% | Activity (Plasmodium berghei [20]): 8.72% | half-life at 10 µM [21]: > 1 h | Survival (Plasmodium berghei [22]): 31 days | IC50 (Plasmodium falciparum [3]): 7.16 nM | IC90 (Plasmodium falciparum [3]): 19.8 nM | IC50 (Plasmodium falciparum [4]): 9.79 nM | IC90 (Plasmodium falciparum [4]): 16.8 nM | Activity (Plasmodium berghei [23]): inactive | Survival (Plasmodium berghei [24]): 29 days | Activity (Plasmodium berghei [25]): 0% | Survival (Plasmodium berghei [26]): 25 days | Activity (Plasmodium berghei [27]): 2.36% | Activity (Plasmodium berghei [28]): 26.8% | Activity (Plasmodium berghei [29]): 0% | Activity (Plasmodium berghei [30]): 15.48% | GI50 [31]: 3390 nM | LC50 [31]: 22400 nM | TGI [31]: 10200 nM | Activity (Plasmodium berghei [32]): Active | Activity (Plasmodium berghei [33]): 0% | IC50 (Plasmodium falciparum [2]): 11.6 nM | IC90 (Plasmodium falciparum [2]): 26.2 nM

CC(=O)O[C@H]1C[C@H]2[C@@H]([C@H](OC(C)=O)C[C@@H]3CC4(CC[C@@]32C)OOC(C)(C)OO4)[C@@H]2CC[C@H]([C@H](C)CCC(=O)O)[C@@]12C
half-life at 10 µM [13]: > 1 h | Survival (Plasmodium berghei [14]): 10 days | Survival (Plasmodium berghei [16]): 15 days | Activity (Plasmodium berghei [34]): inactive | half-life at 10 µM [21]: > 1 h | IC50 (Plasmodium falciparum [3]): 60.4 nM | IC90 (Plasmodium falciparum [3]): 231 nM | IC50 (Plasmodium falciparum [4]): 36 nM | IC90 (Plasmodium falciparum [4]): 94.7 nM | Activity (Plasmodium berghei [23]): inactive | Survival (Plasmodium berghei [24]): 17 days | GI50 [31]: 15500 nM | LC50 [31]: 75900 nM | TGI [31]: 37200 nM | IC50 (Plasmodium falciparum [2]): 46.5 nM | IC90 (Plasmodium falciparum [2]): 96.3 nM

O[C@@H](c1cc(C(F)(F)F)nc2c(C(F)(F)F)cccc12)[C@H]1CCCCN1 [MEFLOQUINE]
IC50 (Plasmodium falciparum [1]): 2.33 nM | IC90 (Plasmodium falciparum [1]): 5 nM | Ratio (Plasmodium falciparum [18]): 1.71 | fold-lower IC90/IC50 ratio vs mefloquine (Plasmodium falciparum [35]): 1.5

CC(=O)O[C@H]1C[C@H]2[C@@H]([C@H](OC(C)=O)C[C@@H]3CC4(CC[C@@]32C)OOC(C)(C)OO4)[C@@H]2CC[C@H]([C@H](C)CCC(N)=O)[C@@]12C
half-life at 10 µM [13]: > 1 h | half-life at 10 µM [21]: > 1 h | IC50 (Plasmodium falciparum [4]): 9.4 nM | GI50 [31]: 8710 nM | LC50 [31]: 79400 nM | TGI [31]: 34700 nM | IC50 (Plasmodium falciparum [2]): 12.2 nM

CCCNC(=O)CC[C@@H](C)[C@H]1CC[C@H]2[C@@H]3[C@H](OC(C)=O)C[C@@H]4CC5(CC[C@]4(C)[C@H]3C[C@H](OC(C)=O)[C@]12C)OOC(C)(C)OO5
half-life at 10 µM [13]: 0.4 h | half-life at 10 µM [21]: 0.417 h | IC50 (Plasmodium falciparum [4]): 18.1 nM | IC90 (Plasmodium falciparum [4]): 29.2 nM | IC50 (Plasmodium falciparum [2]): 7.4 nM | IC90 (Plasmodium falciparum [2]): 16.2 nM

From ChEMBL document CHEMBL1157528, “Mixed tetraoxanes containing the acetone subunit as antimalarials” (Bioorg Med Chem, 2008)
